From the NIST ThermoML archive (doi:10.1021/je700321s)

Test: xn = mol fraction of the nth substance listed
Conditions: Liquid, Vibrating tube method

CC(C)O [propan-2-ol] + O=C=O
Conditions | mass density [kg/m3]
333.02 K, 8305 kPa, x2 = 0.6086 | 754.3
333.02 K, 8394 kPa, x2 = 0.4248 | 773.2
333.02 K, 8400 kPa, x2 = 0.6086 | 754.8
333.02 K, 8504 kPa, x2 = 0.6086 | 755.5
333.02 K, 8610 kPa, x2 = 0.6086 | 756
333.02 K, 8701 kPa, x2 = 0.6086 | 756.6
333.02 K, 8802 kPa, x2 = 0.4248 | 774.1
333.02 K, 8802 kPa, x2 = 0.6086 | 757.3
333.02 K, 8900 kPa, x2 = 0.6086 | 757.9
333.02 K, 8916 kPa, x2 = 0.4248 | 774.5
333.02 K, 9000 kPa, x2 = 0.4248 | 774.7
333.02 K, 9005 kPa, x2 = 0.6086 | 758.5
333.02 K, 9100 kPa, x2 = 0.4248 | 775
333.02 K, 9103 kPa, x2 = 0.6086 | 759
333.02 K, 9205 kPa, x2 = 0.4248 | 775.3
333.02 K, 9304 kPa, x2 = 0.4248 | 775.6
333.02 K, 9410 kPa, x2 = 0.4248 | 775.8
333.02 K, 9506 kPa, x2 = 0.4248 | 776.1
333.02 K, 9607 kPa, x2 = 0.4248 | 776.4
333.02 K, 9809 kPa, x2 = 0.4248 | 776.8
333.05 K, 4210 kPa, x2 = 0.2003 | 763.4
333.05 K, 4492 kPa, x2 = 0.2003 | 763.8
333.05 K, 4799 kPa, x2 = 0.2003 | 764.3
333.05 K, 5001 kPa, x2 = 0.2003 | 764.6
333.05 K, 5470 kPa, x2 = 0.2003 | 765.3
333.05 K, 5996 kPa, x2 = 0.2003 | 766.1
333.05 K, 6511 kPa, x2 = 0.2003 | 766.9
333.05 K, 7008 kPa, x2 = 0.2003 | 767.7
333.05 K, 7519 kPa, x2 = 0.2003 | 768.4
333.05 K, 8008 kPa, x2 = 0.2003 | 769.2
333.05 K, 8503 kPa, x2 = 0.2003 | 769.9
333.05 K, 9019 kPa, x2 = 0.2003 | 770.6
333.05 K, 9506 kPa, x2 = 0.2003 | 771.3
333.05 K, 9994 kPa, x2 = 0.2003 | 772.1
347.93 K, 7801 kPa, x2 = 0.4248 | 744.8
347.93 K, 7908 kPa, x2 = 0.4248 | 745.1
347.93 K, 7999 kPa, x2 = 0.4248 | 745.5
347.93 K, 8130 kPa, x2 = 0.4248 | 745.9
347.93 K, 8239 kPa, x2 = 0.4248 | 746.2
347.93 K, 8408 kPa, x2 = 0.4248 | 746.8
347.93 K, 8501 kPa, x2 = 0.4248 | 747.2
347.93 K, 8600 kPa, x2 = 0.4248 | 747.4
347.93 K, 8712 kPa, x2 = 0.4248 | 747.8
347.93 K, 8801 kPa, x2 = 0.4248 | 748.2
347.93 K, 8890 kPa, x2 = 0.4248 | 748.4
347.93 K, 9033 kPa, x2 = 0.4248 | 748.8
347.93 K, 9105 kPa, x2 = 0.4248 | 749.1
347.93 K, 9244 kPa, x2 = 0.4248 | 749.4
347.93 K, 9410 kPa, x2 = 0.4248 | 750
347.93 K, 9501 kPa, x2 = 0.4248 | 750.2
347.93 K, 9608 kPa, x2 = 0.4248 | 750.7
347.94 K, 9809 kPa, x2 = 0.6086 | 716
347.94 K, 9815 kPa, x2 = 0.6086 | 717
347.94 K, 9822 kPa, x2 = 0.6086 | 718.1
347.94 K, 9831 kPa, x2 = 0.6086 | 719.1
347.94 K, 9840 kPa, x2 = 0.6086 | 719.7
347.94 K, 9850 kPa, x2 = 0.6086 | 720
347.94 K, 9861 kPa, x2 = 0.6086 | 720
347.94 K, 9873 kPa, x2 = 0.6086 | 720.2
347.94 K, 9885 kPa, x2 = 0.6086 | 720.2
347.94 K, 9897 kPa, x2 = 0.6086 | 720.3
347.94 K, 9910 kPa, x2 = 0.6086 | 720.4
347.94 K, 9949 kPa, x2 = 0.6086 | 720.8
347.94 K, 10004 kPa, x2 = 0.6086 | 721.1
347.94 K, 10052 kPa, x2 = 0.6086 | 721.5
347.94 K, 10104 kPa, x2 = 0.6086 | 721.9
347.94 K, 10152 kPa, x2 = 0.6086 | 722.2
347.95 K, 3317 kPa, x2 = 0.139 | 742.5
347.95 K, 3516 kPa, x2 = 0.139 | 742.7
347.95 K, 4002 kPa, x2 = 0.139 | 743.5
347.95 K, 4464 kPa, x2 = 0.139 | 744.3
347.95 K, 5008 kPa, x2 = 0.139 | 745.1
347.95 K, 5502 kPa, x2 = 0.139 | 745.9
347.95 K, 6011 kPa, x2 = 0.139 | 746.7
347.95 K, 6501 kPa, x2 = 0.139 | 747.5
347.95 K, 7037 kPa, x2 = 0.139 | 748.3
347.95 K, 7523 kPa, x2 = 0.139 | 749.1
347.95 K, 8023 kPa, x2 = 0.139 | 749.8
347.95 K, 8497 kPa, x2 = 0.139 | 750.5
347.95 K, 8993 kPa, x2 = 0.139 | 751.3
347.95 K, 9568 kPa, x2 = 0.139 | 752.1
347.95 K, 10032 kPa, x2 = 0.139 | 752.8
347.95 K, 11400 kPa, x2 = 0.7943 | 647.2
347.95 K, 11604 kPa, x2 = 0.7943 | 653.3
347.95 K, 11812 kPa, x2 = 0.7943 | 658.7
347.95 K, 12007 kPa, x2 = 0.7943 | 663
347.95 K, 12201 kPa, x2 = 0.7943 | 666.8
347.95 K, 12502 kPa, x2 = 0.7943 | 672.6
347.95 K, 12802 kPa, x2 = 0.7943 | 677.6
347.95 K, 13202 kPa, x2 = 0.7943 | 684
347.95 K, 13504 kPa, x2 = 0.7943 | 688.5
347.95 K, 13802 kPa, x2 = 0.7943 | 692.8
347.95 K, 14109 kPa, x2 = 0.7943 | 696.9
347.95 K, 14406 kPa, x2 = 0.7943 | 700.5
347.95 K, 14703 kPa, x2 = 0.7943 | 703.9
347.95 K, 15000 kPa, x2 = 0.7943 | 707.4
347.95 K, 15207 kPa, x2 = 0.7943 | 709.6
347.95 K, 15407 kPa, x2 = 0.7943 | 711.9
347.95 K, 15610 kPa, x2 = 0.7943 | 714
347.95 K, 15813 kPa, x2 = 0.7943 | 716.1
347.95 K, 16004 kPa, x2 = 0.7943 | 717.9
347.95 K, 16303 kPa, x2 = 0.7943 | 720.7
347.95 K, 16501 kPa, x2 = 0.7943 | 722.4
347.95 K, 16808 kPa, x2 = 0.7943 | 725
347.96 K, 10989 kPa, x2 = 0.9492 | 348.5
347.96 K, 11505 kPa, x2 = 0.9492 | 382.4
347.96 K, 12004 kPa, x2 = 0.9492 | 415.7
347.96 K, 12507 kPa, x2 = 0.9492 | 448.4
347.96 K, 13000 kPa, x2 = 0.9492 | 477.1
347.96 K, 13503 kPa, x2 = 0.9492 | 503
347.96 K, 14006 kPa, x2 = 0.9492 | 527.8
347.96 K, 14511 kPa, x2 = 0.9492 | 550.1
347.96 K, 15011 kPa, x2 = 0.9492 | 569.6
347.96 K, 15495 kPa, x2 = 0.9492 | 586.6
347.96 K, 15997 kPa, x2 = 0.9492 | 602.4
347.96 K, 16514 kPa, x2 = 0.9492 | 617
347.96 K, 17014 kPa, x2 = 0.9492 | 629.5
347.96 K, 17513 kPa, x2 = 0.9492 | 640.4
347.96 K, 17988 kPa, x2 = 0.9492 | 648.6
347.97 K, 5098 kPa, x2 = 0.2003 | 745.6
347.97 K, 5302 kPa, x2 = 0.2003 | 746.1
347.97 K, 5533 kPa, x2 = 0.2003 | 746.5
347.97 K, 6025 kPa, x2 = 0.2003 | 747.4
347.97 K, 6609 kPa, x2 = 0.2003 | 748.4
347.97 K, 7005 kPa, x2 = 0.2003 | 749.2
347.97 K, 7508 kPa, x2 = 0.2003 | 750.1
347.97 K, 8010 kPa, x2 = 0.2003 | 751
347.97 K, 8501 kPa, x2 = 0.2003 | 751.7
347.97 K, 8915 kPa, x2 = 0.2003 | 752.4
347.97 K, 9581 kPa, x2 = 0.2003 | 753.5
347.97 K, 9706 kPa, x2 = 0.2003 | 753.7
347.97 K, 10014 kPa, x2 = 0.2003 | 754.2
